From PubChem BioAssay AID586 (The Scripps Research Institute Molecular Screening Center, 2007) come the findings set out here.

Structures are written as SMILES. Activity calls are given as the source filed them. No rule for the calls is given here. Bounds are passed on as bounds.

This assay concerns antigen receptor-induced NF-kappaB activation reporter, cells. Description: NF-kB reporter activation blockers, potency – cell-based, dose response (AID 586).
`Cc1ccc2nc(-c3ccccc3)cn2c1`: the IC50 (commonly the concentration that gives 50% inhibition) was 1150 nM. As for `Cc1csc(NC(=O)c2sc3nc(-c4cccs4)ccc3c2N)n1`, the IC50 is 565 nM. With `COCCn1c(C)cc(C(=O)CSc2nnc(C)s2)c1C`, the IC50 is 4100 nM. In the case of `CCOc1ccccc1NC(=O)Cn1nnc(C(=O)NCc2ccco2)c1N`, the IC50 is 1350 nM.

As to `COc1ccc2c(c1)sc1nc(-c3ccccc3)cn12`, the IC50 was 1870 nM. Consider `COc1ccc(-c2noc(CCCC(=O)O)n2)cc1`, for which the IC50 is > 30000 nM (inactive). For the molecule `Cc1ccc(-c2nc(-c3ccccn3)no2)cc1`, the IC50 is 2060 nM. For the molecule `Cc1cccc(-n2ncc3c(N(C)C4CCCCC4)ncnc32)c1`, the IC50 was 6590 nM. With `COc1ccc(C2=Nn3c(nnc3-c3ccccc3OC)SC2)cc1OC`, the IC50 was 1420 nM. With `COc1cccc2c(C)c(C(=O)O)[nH]c12`, the IC50 was 4840 nM.

Regarding `CCCOc1c(OC)cccc1C1CC(=O)Nc2cc(OC)c(OC)c(OC)c21` (stereo not drawn), the IC50 was > 30000 nM (inactive). As for `O=C(O)[C@@H]1CCCC[C@@H]1C(=O)N1CCc2ccccc2C1CN1C(=O)c2ccccc2C1=O` (stereo partly drawn), the IC50 is > 30000 nM (inactive). Take `Cc1ccc(-c2cnc(NC(=O)CCC(=O)N3CCCCC3)n2C)cc1`: the 50% inhibitory concentration (IC50) was 953 nM. `COc1cc(NC(=O)c2cccc3c2C(=O)N(Cc2cccnc2)C3)cc(OC)c1OC`: the IC50 was 1180 nM. For `CCCN(CCC)S(=O)(=O)c1ccc(C(=O)Nc2nnc(-c3cccc(OC)c3)o2)cc1`, the IC50 was 4510 nM. The same measure for `CCOC(=O)C(C(C)=O)c1c(Br)c(O)c(O)c2c(C(=O)c3ccc(C)cc3)coc12` (stereo not drawn): 8330 nM; for `COc1cc(OC)cc(-c2cc3nc(C)c(CCC(=O)O)c(C)n3n2)c1`: 1540 nM; for `CCN(CC)c1ccc(-c2nn3c(-c4ccccc4OC)nnc3s2)cc1`: 819 nM. The same measure for `CC(C)c1nnc(NC(=O)c2c(O)c3cccc4c3n(c2=O)CCC4)s1`: > 30000 nM (inactive); for `O=C(Nc1nc2ccccc2[nH]1)c1ccccc1F`: 2280 nM.

`O=C(Cc1cccs1)Nc1nc2c(s1)CCCC2`: the IC50 is 2650 nM. The same measure for `CCCOc1ccccc1C1CC(=O)Nc2cc3c(cc21)OCCO3` (stereo not drawn): 25000 nM (inactive); for `CCn1c2ccccc2c2cc(Nc3cc(C)nc4ncnn34)ccc21`: 1450 nM; for `CCCCn1c(SCc2c(C)noc2C)nc2cc(S(N)(=O)=O)ccc21`: 2600 nM. Regarding `CCOc1ccc(OCc2cccc(C(=O)O)c2)cc1`, the IC50 was 192 nM. Take `Cc1ccc(-c2cc3c(nn2)-c2ccccc2C3=O)cc1`: the IC50 was 3290 nM. For the molecule `CCN1C=CC(=C2C(=O)c3ccccc3C2=O)C=C1`, the IC50 is 4750 nM. `COc1ccccc1-c1nnc2sc(-c3ccc(N(C)C)cc3)nn12`: the IC50 is > 9970 nM (inactive). As for `COc1ccc(OCc2cccc(C(=O)O)c2)cc1`, the IC50 is 257 nM.

As for `CCOC(=O)c1[nH]c(C)c(C(=O)c2cc(F)ccc2F)c1C`, the IC50 was > 9970 nM (inactive).

In the case of `O=C(O)c1cccc(COc2ccc(CO)cc2Cl)c1`, the IC50 is 252 nM.

Take `Cc1nn(Cc2c(Cl)cccc2Cl)c(C)c1NC(=O)c1cc(C(C)C)on1`: the IC50 was > 9970 nM (inactive). For the molecule `CCN1C(=O)c2cccc3c(S(=O)(=O)Nc4ccccn4)ccc1c23`, the IC50 is 2940 nM. Consider `CC(C)(C)c1ccc(-c2noc(CCC(N)=O)n2)cc1`, for which the IC50 was 300 nM. The result for `c1ccc(-c2noc(-c3ccc4ccccc4c3)n2)nc1` reads 1400 nM; that for `COc1ccc2cc(C(=O)NCc3ccco3)c(=Nc3ccc(C(=O)O)cc3)oc2c1`, 20900 nM (inactive). The result for `Clc1ccc(COn2nnc3ccccc32)c(Cl)c1` reads > 30000 nM (inactive); that for `O=C(/C=C\Nc1ccc2c(c1)OCO2)c1ccccn1`, 3030 nM. `Cc1cc(C)nc(N2CCC(C(=O)NCCc3ccc(F)cc3)CC2)n1`: the IC50 was > 30000 nM (inactive). For `CCCN1C=CC(=C2C(=O)c3ccccc3C2=O)C=C1`, the IC50 is 1040 nM.

On to `COc1cccc(-c2nnc3n2N=C(C(C)(C)C)CS3)c1`, for which the IC50 is 3280 nM. In the case of `Cc1cc(C(=O)OCC(=O)NCc2ccco2)c(C)n1-c1ccccc1`, the IC50 is > 30000 nM (inactive). As for `Cn1c(=O)n(C)c2cc(C(=O)Nc3ccc4c(c3)OCO4)ccc21`, the IC50 was 2250 nM. As for `O=C(O)c1cccc(COc2ccccc2Cl)c1`, the IC50 is 615 nM. Regarding `COc1cc(CC(NC(C)=O)C(=O)NC2CCN(c3nc(C)cc(C)c3C#N)CC2)cc(OC)c1` (stereo not drawn), the IC50 was 1640 nM.

In the case of `CC1=CC(C)(C)Nc2ccc(OC(=O)CN3C(=O)CCC3=O)cc21`, the IC50 is 6840 nM. With `Cc1ccc(C(=O)NCCn2cc(SCC(=O)Nc3cc(C)on3)c3ccccc32)cc1`, the IC50 is 5460 nM. In the case of `CCNc1ccc(C(=O)OCC)cc1NC(=O)c1cccc(N(C)C)c1`, the IC50 is > 30000 nM (inactive). The same measure for `O=C(NC1c2ccccc2-c2ccccc21)N1CCCCC1`: > 30000 nM (inactive); for `Cc1ccc(-c2nsc3c(N4CCC(C(N)=O)CC4)ncnc23)cc1`: > 30000 nM (inactive). For `CCOc1ccccc1NC(=O)c1cccc(NC(=O)c2ccco2)c1`, the IC50 was > 30000 nM (inactive). For the molecule `CC1CCCN(c2ncnc3c2cnn3-c2ccc(Cl)cc2)C1` (stereo not drawn), the IC50 is 73 nM.

On to `O=C(CN1C(=O)c2ccccc2S1(=O)=O)N1CCc2ccccc21`, for which the IC50 was 2260 nM.

For the molecule `CCN(CC)c1ccc2cc(NC(=O)CCC(=O)O)c(=O)oc2c1`, the IC50 was > 9970 nM (inactive). Turning to `O=C(CSc1nnnn1C1CC2CCC1C2)Nc1ccnc2ccccc12` (stereo not drawn), the IC50 is > 30000 nM (inactive). On to `COC(=O)c1[nH]c2c(c1C)C(=O)CC(c1ccccc1)C2` (stereo not drawn), for which the IC50 was 13200 nM (inactive). The result for `C=C(C)COc1ccc(-c2[nH]ncc2-c2ccc(OC)c(OC)c2)c(O)c1` reads 8250 nM; that for `COC(=O)C1=C(CN2CCCc3ccccc32)NC(=O)NC1c1ccc(F)cc1` (stereo not drawn), 700 nM; that for `COc1cc(C2C(C#N)=C(C)NC3=C2C(=O)c2ccccc23)cc(OC)c1OC` (stereo not drawn), 6610 nM. With `CC1=CC(C)(C)Nc2ccc(OC(=O)c3cccnc3)cc21`, the IC50 was > 9970 nM (inactive). `O=C1NC(Nc2nc3ccccc3s2)(C(F)(F)F)C(=O)N1C1CCCCC1` (stereo not drawn): the IC50 was > 30000 nM (inactive). With `COc1cc(C2C(C#N)=C(N)Oc3cc(N(C)C)ccc32)cc2c1OCO2` (stereo not drawn), the IC50 was 766 nM. Turning to `CCOC(=O)c1[nH]c2c(c1C)C(=O)CC(c1ccco1)C2` (stereo not drawn), the IC50 is 316 nM.

Consider `CCOC(=O)c1ccccc1NC(=O)Cn1c(-c2nonc2N)nc2ccccc21`, for which the IC50 is 11600 nM (inactive). Turning to `COc1cccc(NC(=O)CSc2nnc(-c3cc(C)n(-c4ccccc4)c3C)o2)c1`, the IC50 is > 9970 nM (inactive). The result for `N#Cc1c(NC(=O)CSc2ncn[nH]2)sc2c1CCCCC2` reads 6570 nM; that for `Cc1cccc(N2CCN(C(=O)c3ccc(CS(=O)(=O)c4ccccc4C)o3)CC2C)c1` (stereo not drawn), 7040 nM; that for `Cc1cc(-n2c(C)cc(C(=O)CSc3ncnc4ccccc34)c2C)no1`, > 30000 nM (inactive).

On to `O=C(NC1=NCCS1)C1COc2ccccc2O1` (stereo not drawn), for which the IC50 was 2420 nM. With `Cn1cc(/C=N/n2cnc3scc(-c4ccc(Cl)cc4)c3c2=O)c2ccccc21`, the IC50 is > 30000 nM (inactive). Regarding `Cc1cc(C(=O)CN2C(=O)c3ccccc3S2(=O)=O)c(C)n1CC1CCCO1` (stereo not drawn), the IC50 is 310 nM. For `O=C(Nc1ccc(N2CCOCC2)cc1)c1cnsn1`, the IC50 was 4220 nM. Take `O=C(NCc1cccs1)c1nc2c(nnn2Cc2ccccc2Cl)c(=O)[nH]1`: the IC50 is 2320 nM. Consider `Cc1cccc(C)c1-n1nnnc1SCSc1nnnn1-c1c(C)cccc1C`, for which the IC50 is 3410 nM. The result for `CCN(c1ccccc1)S(=O)(=O)c1ccc(Oc2ccc(-n3ccnc3)cc2)nc1` reads 738 nM. In the case of `CN(C)c1ccc2c(c1)OC(N)=C(C#N)C2c1cccc(F)c1` (stereo not drawn), the IC50 was 1650 nM. As for `CC1CCN(c2nc3ccc(C(=O)O)cc3s2)CC1`, the IC50 was 203 nM. The result for `Cc1nn(-c2ccccc2)c(Cl)c1C1C(C#N)=C(N)Oc2n[nH]c(C)c21` (stereo not drawn) reads 1860 nM.

Turning to `COc1cc(C(=O)N2CCN(c3cc(Cl)ccc3Cl)CC2)cc(OC)c1OC`, the IC50 was > 30000 nM (inactive).

Take `CCOc1ccc(OCc2cccc(C(=O)N3CCOCC3)c2)cc1`: the IC50 was 2570 nM. Take `CCN(CC)c1ccc2cc(-c3nc4ccccc4n3C)c(=O)oc2c1`: the IC50 was > 9970 nM (inactive). On to `O=C(c1ccc(Cl)cc1)N1CCCCC(Sc2nnc(-c3ccc4c(c3)OCO4)o2)C1=O` (stereo not drawn), for which the IC50 is 1240 nM.

As to `N#CC1=C2SCC(O)(c3ccccc3)N2C(=O)CC1c1cccs1` (stereo not drawn), the IC50 is 5020 nM. For the molecule `Cc1cccc2cc(CN(Cc3cccs3)C(c3nnnn3C3CCCC3)C(C)C)c(=O)[nH]c12` (stereo not drawn), the IC50 was 8420 nM. `Cc1c(C(=O)OCCOC(C)C)[nH]c2c1C(=O)CC(c1ccco1)C2` (stereo not drawn): the IC50 was 1670 nM. Regarding `CCNC(=O)CCc1nc(-c2ccc(C(C)(C)C)cc2)no1`, the IC50 was 1610 nM. The result for `CSc1nnc2c3ccccc3n(CCc3ccccc3)c2n1` reads 10300 nM (inactive); that for `CC(=O)c1ccc(-c2nc3c4ccccc4ccn3c2C(C)=O)o1`, 730 nM; that for `CCOc1ccc(-c2nc(CSCC(=O)NCc3ccco3)c(C)o2)cc1`, 1830 nM.

Regarding `COc1ccccc1C(=O)N1CCN(c2cccc(Cl)c2)CC1`, the IC50 is 17900 nM (inactive). Turning to `COc1ccc(C(=O)NC(=O)Nc2cc(C)ccn2)cc1`, the IC50 was 3900 nM. Take `Cc1ccc(Nc2cc(C)nn2-c2nc(C)cc(=O)[nH]2)cc1`: the IC50 is 10600 nM (inactive). For `COc1cccc(C=Nc2cccnc2)c1O`, the IC50 was > 30000 nM (inactive). The same measure for `Cc1nn(Cc2ccccc2Cl)c(C)c1C(=O)Nc1nnc(C2CC2)s1`: 2500 nM; for `COc1cccc(Oc2cnc(N)nc2-c2ccc(OC)cc2O)c1`: 14600 nM (inactive). `O=c1c2ccccc2cnn1-c1nc2ccccc2s1`: the IC50 is 3300 nM. The same measure for `NC(=O)c1sc2nccc(Nc3ccccc3)c2c1N`: 8970 nM.

Consider `c1ccc(-c2noc(-c3ccc4c(c3)OCO4)n2)nc1`, for which the IC50 is > 30000 nM (inactive).
